Test system: pea plants cv. 'Carneval'
Assay: Growth chamber experiment 2, pea 'Carneval' sprayed with 4-ME-IAA: peduncle/pedicel growth and seed yield, with or without heat stress (Tables P3-P12)
Type: in vivo, Pisum sativum L.
Protocol: For growth chamber experiment, seeds of ‘Carneval’ were planted at an approximate depth of 2.5 cm in 3-L plastic pots (4 seeds per pot and thinned to 2 plants per pot after approximately 2 weeks) in 1:1 Sunshine #4 potting mix (Sun Gro Horticulture, Vancouver, Canada) and sand. The experiment was arranged in a completely randomized design and grown at the University of Alberta in a growth chamber set at 19° C./17° C. (day/night) with a 16/8-h photoperiod under cool-white fluorescent lights (54W/835/HO high fluorescent bulbs, Phillips, Holland; 350 μE m^2 s^−2). For the heat stress treatment, plants were placed in a separate growth chamber with a 16/8-h photoperiod under cool-white fluorescent lights (F54/15/835/HO high fluorescent bulbs, Phillips, Holland) for 4 days where the temperature was cycled over a 24 hr period as follows: 33° C. air temperature for 6 hours per day (between 11:00 and 17:00 hrs) for 4 days during the light cycle; the remainder of the light cycle was maintained at a 22° C. air temperature; the dark cycle was maintained at 19° C. After the 4 day heat treatment, the plants were returned to the same growth chamber they were originally grown in, where they were taken to maturity.
For experiment 2, aqueous 4-methyl-indole-3-acetic acid (4-ME-IAA) solutions at 1×10^−7, 1×10^−6, 1×10^−5, or 1×10^−4 M in 0.1% (v/v) Tween 80 or aqueous 0.1% (v/v) Tween 80 (control) were applied as a spray to the entire plant to cover when the first flowering node of the main stem was near or at anthesis. In addition to the application at the timing cited above, one application of 4-ME-IAA at 1×10^−6 M or 1×10^−5 M was made when the floral buds were tightly clustered inside the stipule leaves at the stem apex (floral buds not visible outside of stipule leaves; designated the ‘Early’ treatment). In the heat stress treatment, the hormone or control treatment application was completed 16 hrs prior to the initiation of the first heat-stress cycle. The length and diameter (measured mid-length) of the lower and upper peduncles and pedicels of the inflorescence with two pods (or the lower peduncle and pedicel if a single pod node) at the first, second, third and fourth flowering nodes of the main stem of pea plants were determined for hormone-treated and control plants. Standard error of the mean (SE) was calculated for the means of all data for a measure of statistical significance in comparing treatment means.

[1] = 1×10^−6 M, first flowering node, heat stress (33° C. 6 h/day, 4 days)
[2] = 1×10^−6 M, first flowering node, no heat stress
[3] = 1×10^−6 M, fourth flowering node, heat stress (33° C. 6 h/day, 4 days)
[4] = 1×10^−6 M, fourth flowering node, no heat stress
[5] = 1×10^−6 M, heat stress (33° C. 6 h/day, 4 days)
[6] = 1×10^−6 M, second flowering node, heat stress (33° C. 6 h/day, 4 days)
[7] = 1×10^−6 M, second flowering node, no heat stress
[8] = 1×10^−6 M, third flowering node, heat stress (33° C. 6 h/day, 4 days)
[9] = 1×10^−6 M, third flowering node, no heat stress
[10] = 1×10^−7 M, applied near or at anthesis, no heat stress
[11] = 1×10^−7 M, first flowering node, heat stress (33° C. 6 h/day, 4 days)
[12] = 1×10^−7 M, first flowering node, no heat stress
[13] = 1×10^−7 M, fourth flowering node, heat stress (33° C. 6 h/day, 4 days)
[14] = 1×10^−7 M, fourth flowering node, no heat stress
[15] = 1×10^−7 M, heat stress (33° C. 6 h/day, 4 days)
[16] = 1×10^−7 M, second flowering node, heat stress (33° C. 6 h/day, 4 days)
[17] = 1×10^−7 M, second flowering node, no heat stress
[18] = 1×10^−7 M, third flowering node, heat stress (33° C. 6 h/day, 4 days)
[19] = 1×10^−7 M, third flowering node, no heat stress
[20] = Early treatment (tight floral bud stage) 1×10^−5 M, no heat stress
[21] = Early treatment (tight floral bud stage) 1×10^−6 M, no heat stress

Cc1cccc2[nH]cc(CC(=O)O)c12 [4-ME-IAA, 4-methyl-indole-3-acetic acid]
Lower Peduncle diameter [1]: 1.38 ± 0.08 mm
Upper Pedicel Length [1]: 8.29 ± 0.18 mm
Upper Pedicel diameter [1]: 1.43 ± 0.06 mm
Upper Peduncle Length [1]: 16.71 ± 1.55 mm
Upper Peduncle diameter [1]: 1.19 ± 0.07 mm
Lower Pedicel Length [2]: 9.40 ± 0.27 mm
Lower Pedicel diameter [2]: 1.70 ± 0.04 mm
Lower Peduncle Length [2]: 75.00 ± 4.00 mm
Lower Peduncle diameter [2]: 1.65 ± 0.03 mm
Upper Pedicel Length [2]: 9.40 ± 0.27 mm
Upper Pedicel diameter [2]: 1.54 ± 0.04 mm
Upper Peduncle Length [2]: 20.30 ± 1.54 mm
Upper Peduncle diameter [2]: 1.37 ± 0.05 mm
Lower Pedicel Length [3]: 7.40 ± 0.24 mm
Lower Pedicel diameter [3]: 1.49 ± 0.11 mm
Lower Peduncle Length [3]: 26.80 ± 4.55 mm
Lower Peduncle diameter [3]: 1.25 ± 0.06 mm
Upper Pedicel Length [3]: 8.00 mm
Upper Pedicel diameter [3]: 1.46 mm
Upper Peduncle Length [3]: 15.00 mm
Upper Peduncle diameter [3]: 1.33 mm
Lower Pedicel Length [4]: 8.80 ± 0.25 mm
Lower Pedicel diameter [4]: 1.34 ± 0.03 mm
Lower Peduncle Length [4]: 38.00 ± 3.63 mm
Lower Peduncle diameter [4]: 1.38 ± 0.05 mm
Upper Pedicel Length [4]: 8.33 ± 0.29 mm
Upper Pedicel diameter [4]: 1.24 ± 0.05 mm
Upper Peduncle Length [4]: 16.67 ± 0.69 mm
Upper Peduncle diameter [4]: 1.16 ± 0.03 mm
Ratio of seed number on main stem to lateral stems [5]: 2.0 ± 0.5
Seed number plant [5]: 46.8 ± 3.3
Seed weight per per plant [5]: 12.9 ± 0.9 g
Weight per seed [5]: 0.277 ± 0.005 g
Lower Pedicel Length [6]: 8.80 ± 0.36 mm
Lower Pedicel diameter [6]: 1.47 ± 0.05 mm
Lower Peduncle Length [6]: 47.10 ± 3.42 mm
Lower Peduncle diameter [6]: 1.28 ± 0.06 mm
Upper Pedicel Length [6]: 8.14 ± 0.14 mm
Upper Pedicel diameter [6]: 1.43 ± 0.04 mm
Upper Peduncle Length [6]: 16.86 ± 1.01 mm
Upper Peduncle diameter [6]: 1.20 ± 0.07 mm
Lower Pedicel Length [7]: 9.4 ± 0.27 mm
Lower Pedicel diameter [7]: 1.51 ± 0.04 mm
Lower Peduncle Length [7]: 58.20 ± 5.41 mm
Lower Peduncle diameter [7]: 1.51 ± 0.04 mm
Upper Pedicel Length [7]: 9.20 ± 0.33 mm
Upper Pedicel diameter [7]: 1.47 ± 0.04 mm
Upper Peduncle Length [7]: 19.00 ± 0.60 mm
Upper Peduncle diameter [7]: 1.26 ± 0.02 mm
Lower Pedicel Length [8]: 7.90 ± 0.28 mm
Lower Pedicel diameter [8]: 1.43 ± 0.05 mm
Lower Peduncle Length [8]: 34.50 ± 2.73 mm
Lower Peduncle diameter [8]: 1.33 ± 0.05 mm
Upper Pedicel Length [8]: 8.60 ± 0.24 mm
Upper Pedicel diameter [8]: 1.34 ± 0.04 mm
Upper Peduncle Length [8]: 15.80 ± 1.11 mm
Upper Peduncle diameter [8]: 1.17 ± 0.03 mm
Lower Pedicel Length [9]: 9.00 ± 0.30 mm
Lower Pedicel diameter [9]: 1.39 ± 0.04 mm
Lower Peduncle Length [9]: 45.90 ± 4.3 mm
Lower Peduncle diameter [9]: 1.49 ± 0.04 mm
Upper Pedicel Length [9]: 9.00 ± 0.29 mm
Upper Pedicel diameter [9]: 1.31 ± 0.04 mm
Upper Peduncle Length [9]: 18.00 ± 0.96 mm
Upper Peduncle diameter [9]: 1.17 ± 0.02 mm
Ratio of seed number on main stem to lateral stems [10]: 3.0 ± 0.4
Seed number per plant [10]: 63.5 ± 6.8
Seed weight per plant [10]: 15.5 ± 1.6 g
Weight per seed [10]: 0.245 ± 0.004 g
increase in seed yield (seed weight per plant) vs control [10]: 78%
Lower Pedicel Length [11]: 9.40 ± 0.34 mm
Lower Pedicel diameter [11]: 1.73 ± 0.04 mm
Lower Peduncle Length [11]: 68.40 ± 5.39 mm
Lower Peduncle diameter [11]: 1.72 ± 0.05 mm
Upper Pedicel Length [11]: 9.00 ± 0.37 mm
Upper Pedicel diameter [11]: 1.67 ± 0.06 mm
Upper Peduncle Length [11]: 18.11 ± 0.59 mm
Upper Peduncle diameter [11]: 1.45 ± 0.08 mm
Lower Pedicel Length [12]: 9.30 ± 0.26 mm
Lower Pedicel diameter [12]: 1.65 ± 0.04 mm
Lower Peduncle Length [12]: 67.10 ± 5.30 mm
Lower Peduncle diameter [12]: 1.59 ± 0.04 mm
Upper Pedicel Length [12]: 9.20 ± 0.20 mm
Upper Pedicel diameter [12]: 1.52 ± 0.03 mm
Upper Peduncle Length [12]: 19.80 ± 1.08 mm
Upper Peduncle diameter [12]: 1.27 ± 0.05 mm
Lower Pedicel Length [13]: 7.50 ± 0.56 mm
Lower Pedicel diameter [13]: 1.49 ± 0.05 mm
Lower Peduncle Length [13]: 38.67 ± 3.18 mm
Lower Peduncle diameter [13]: 1.58 ± 0.06 mm
Upper Pedicel Length [13]: 8.00 ± 0.58 mm
Upper Pedicel diameter [13]: 1.39 ± 0.15 mm
Upper Peduncle Length [13]: 17.00 ± 1.00 mm
Upper Peduncle diameter [13]: 1.30 ± 0.06 mm
Lower Pedicel Length [14]: 9.57 ± 0.37 mm
Lower Pedicel diameter [14]: 1.37 ± 0.03 mm
Lower Peduncle Length [14]: 44.00 ± 3.22 mm
Lower Peduncle diameter [14]: 1.37 ± 0.03 mm
Upper Pedicel Length [14]: 8.86 ± 0.55 mm
Upper Pedicel diameter [14]: 1.25 ± 0.04 mm
Upper Peduncle Length [14]: 18.57 ± 0.61 mm
Upper Peduncle diameter [14]: 1.12 ± 0.03 mm
Ratio of seed number on main stem to lateral stems [15]: 1.2 ± 0.2
Seed number plant [15]: 55.9 ± 5.9
Seed weight per per plant [15]: 15.3 ± 1.7 g
Weight per seed [15]: 0.273 ± 0.010 g
increase in seed number per plant over control (1×10^−7 M, mild heat stress): 30%
increase in seed weight per plant over control (1×10^−7 M, mild heat stress): 29%
Lower Pedicel Length [16]: 8.78 ± 0.28 mm
Lower Pedicel diameter [16]: 1.69 ± 0.06 mm
Lower Peduncle Length [16]: 62.00 ± 2.88 mm
Lower Peduncle diameter [16]: 1.69 ± 0.05 mm
Upper Pedicel Length [16]: 8.50 ± 0.22 mm
Upper Pedicel diameter [16]: 1.55 ± 0.07 mm
Upper Peduncle Length [16]: 17.00 ± 0.73 mm
Upper Peduncle diameter [16]: 1.41 ± 0.05 mm
Lower Pedicel Length [17]: 9.3 ± 0.30 mm
Lower Pedicel diameter [17]: 1.57 ± 0.05 mm
Lower Peduncle Length [17]: 55.80 ± 4.61 mm
Lower Peduncle diameter [17]: 1.57 ± 0.03 mm
Upper Pedicel Length [17]: 9.20 ± 0.29 mm
Upper Pedicel diameter [17]: 1.48 ± 0.04 mm
Upper Peduncle Length [17]: 19.00 ± 0.76 mm
Upper Peduncle diameter [17]: 1.25 ± 0.02 mm
Lower Pedicel Length [18]: 8.13 ± 0.40 mm
Lower Pedicel diameter [18]: 1.70 ± 0.06 mm
Lower Peduncle Length [18]: 46.13 ± 2.75 mm
Lower Peduncle diameter [18]: 1.61 ± 0.06 mm
Upper Pedicel Length [18]: 8.20 ± 0.37 mm
Upper Pedicel diameter [18]: 1.46 ± 0.11 mm
Upper Peduncle Length [18]: 18.60 ± 0.98 mm
Upper Peduncle diameter [18]: 1.31 ± 0.07 mm
Lower Pedicel Length [19]: 9.44 ± 0.18 mm
Lower Pedicel diameter [19]: 1.46 ± 0.04 mm
Lower Peduncle Length [19]: 48.44 ± 2.5 mm
Lower Peduncle diameter [19]: 1.42 ± 0.05 mm
Upper Pedicel Length [19]: 9.00 ± 0.33 mm
Upper Pedicel diameter [19]: 1.26 ± 0.05 mm
Upper Peduncle Length [19]: 18.38 ± 1.10 mm
Upper Peduncle diameter [19]: 1.07 ± 0.03 mm
number of inflorescences with two pods at the fourth flowering node (1×10^−7 to 1×10^−4 M, no heat stress, control 10%): 70-90 % of the plants
number of inflorescences with 2 pods at the third flowering node (1×10^−7 to 1×10^−4 M, no heat stress, control 20%): 80-100 % of the plants
increase in seed yield vs control ('Early' treatment 1×10^−6 M): 109%
Ratio of seed number on main stem to lateral stems [20]: 1.5 ± 0.2
Seed number per plant [20]: 64.8 ± 5.2
Seed weight per plant [20]: 16.2 ± 1.3 g
Weight per seed [20]: 0.252 ± 0.006 g
Ratio of seed number on main stem to lateral stems [21]: 1.6 ± 0.1
Seed number per plant [21]: 73.8 ± 5.9
Seed weight per plant [21]: 18.2 ± 1.4 g
Weight per seed [21]: 0.248 ± 0.006 g
